# In patent US9193736B2, “PDE 10a inhibitors for the treatment of type II diabetes” (Janssen Pharmaceutica, NV, priority 2013, dated 2015):
# pIC50: −log10 of the molar value. Structures can show the parent of a compound that is named as a salt.
# Tests used:
# [1] = biological target: Rat recombinant PDE10a (rPDE10a) (Rattus norvegicus (Rat), UniProt Q9QYJ6); test: In vitro assay PDE10a: rat recombinant PDE10a SPA with 3H-cAMP substrate, IC50; assay type: biochemical; details: 60 nM cAMP, read-out: rPDE10a2 IC50
# Chain of Rat recombinant PDE10a (rPDE10a) (Q9QYJ6 whole entry): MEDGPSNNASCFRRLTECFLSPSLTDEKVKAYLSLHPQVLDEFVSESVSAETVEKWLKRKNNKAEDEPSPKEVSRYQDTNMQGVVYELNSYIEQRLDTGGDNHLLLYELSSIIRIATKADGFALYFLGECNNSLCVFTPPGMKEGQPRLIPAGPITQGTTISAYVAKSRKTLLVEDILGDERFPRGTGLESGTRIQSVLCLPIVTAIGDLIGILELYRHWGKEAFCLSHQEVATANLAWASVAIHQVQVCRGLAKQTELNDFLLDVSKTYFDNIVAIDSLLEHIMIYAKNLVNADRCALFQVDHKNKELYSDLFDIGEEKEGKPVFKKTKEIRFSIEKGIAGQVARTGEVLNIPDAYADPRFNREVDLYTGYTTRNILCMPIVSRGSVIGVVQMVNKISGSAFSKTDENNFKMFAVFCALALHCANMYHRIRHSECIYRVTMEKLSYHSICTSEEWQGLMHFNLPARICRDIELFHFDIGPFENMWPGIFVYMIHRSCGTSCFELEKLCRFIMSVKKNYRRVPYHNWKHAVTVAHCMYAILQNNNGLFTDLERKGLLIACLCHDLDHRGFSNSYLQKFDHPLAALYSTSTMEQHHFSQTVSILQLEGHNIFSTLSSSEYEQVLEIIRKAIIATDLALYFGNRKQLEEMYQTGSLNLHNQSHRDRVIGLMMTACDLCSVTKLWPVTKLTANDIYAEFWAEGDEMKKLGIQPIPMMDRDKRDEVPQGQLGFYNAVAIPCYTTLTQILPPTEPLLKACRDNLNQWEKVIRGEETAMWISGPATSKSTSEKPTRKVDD
# Summary of the method: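 Enzyme expressed in Sf9 cells via baculovirus and Ni-sepharose purified; reaction with 3H-cAMP ran 60 min at rt, stopped with PDE SPA beads. Compounds diluted in DMSO at 100-fold final concentration; blanks omitted enzyme.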
# [2] = PDE10a perfused brain permeability study: plasma concentrations at 30 and 120 min, brain concentration at 120 min, brain/plasma ratio; details: for concentration at 2 h / Kp at 2 h: male, Sprague-Dawley, rat; for Kp at 2 h: brain/plasma
# [3] = biological target: Human recombinant PDE10A2 (Homo sapiens (Human), UniProt Q9Y233); test: In vitro hPDE10a: human recombinant PDE10A2 scintillation proximity assay, IC50; assay type: biochemical; details: human recombinant PDE10A2, SPA, 60 nM cAMP; read-out: hPDE10a2 IC50
# Chain of Human recombinant PDE10A2 (Q9Y233 267-1055): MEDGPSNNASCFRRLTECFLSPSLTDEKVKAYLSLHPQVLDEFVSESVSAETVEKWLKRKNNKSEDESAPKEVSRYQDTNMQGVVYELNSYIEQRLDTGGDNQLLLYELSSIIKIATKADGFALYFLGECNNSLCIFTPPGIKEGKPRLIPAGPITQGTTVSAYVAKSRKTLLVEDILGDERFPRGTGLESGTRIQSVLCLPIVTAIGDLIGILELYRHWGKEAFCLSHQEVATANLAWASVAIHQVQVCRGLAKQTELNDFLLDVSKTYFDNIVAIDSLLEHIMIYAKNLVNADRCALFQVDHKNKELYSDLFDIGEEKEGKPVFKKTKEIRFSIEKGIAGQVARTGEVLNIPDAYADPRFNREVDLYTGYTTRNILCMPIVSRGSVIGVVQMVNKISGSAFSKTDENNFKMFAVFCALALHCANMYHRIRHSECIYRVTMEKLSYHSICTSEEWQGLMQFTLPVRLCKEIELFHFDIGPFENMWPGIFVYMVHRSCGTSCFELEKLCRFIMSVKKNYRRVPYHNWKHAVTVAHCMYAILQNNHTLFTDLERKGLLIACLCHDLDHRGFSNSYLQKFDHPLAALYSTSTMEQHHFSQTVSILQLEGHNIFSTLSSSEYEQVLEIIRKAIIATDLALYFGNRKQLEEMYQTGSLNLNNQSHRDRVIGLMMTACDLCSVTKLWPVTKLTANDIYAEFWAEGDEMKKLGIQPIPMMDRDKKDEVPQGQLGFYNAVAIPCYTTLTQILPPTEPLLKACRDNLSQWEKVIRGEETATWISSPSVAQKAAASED
# Summary of the method: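 Purified recombinant human PDE10A2 (Ni-sepharose) was assayed by SPA, counting [3H]-AMP product captured on yttrium silicate beads added in zinc sulphate stop solution. Inhibition was expressed as % of activity without compound, with a no-enzyme low control. Repeat data points were aggregated.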
# [4] = male Sprague Dawley rats, 2 h, perfused or non-perfused brain
Structure (SMILES),pIC50 [1],pIC50 [3],further results
"c1ccc2nc(SCc3nc4c(N5CCOCC5)ccnn4c3-c3ccc(N4CCNCC4)nc3)ccc2c1 [Cpd 6, 4-(3-(6-(piperazin-1-yl)pyridin-3-yl)-2-((quinolin-2-ylthio)methyl)imidazo[1,2-b]pyridazin-8-yl)morpholine trifluoroacetic acid salt]",7.60,7.70,concentration at 2 h ([2]; brain): 52 ng/g; Kp at 2 h [2]: 0.39; concentration at 2 h ([2]; plasma): 135 ng/mL
"O=C(Nc1nc2c(N3CCOCC3)ccnn2c1-c1ccc(N2CCNCC2)nc1)c1ccc2ccccc2n1 [Cpd 8, N-(8-Morpholino-3-(6-(piperazin-1-yl)pyridin-3-yl)imidazo[1,2-b]pyridazin-2-yl)quinoline-2-carboxamide trifluoroacetic acid salt]",6.09,6.22,concentration at 2 h ([2]; brain): 38.8 ng/g; Kp at 2 h [2]: 1.16; concentration at 2 h ([2]; plasma): 33.7 ng/mL
"O=C(O)CNc1ccc(-c2c(/C=C/c3ccc4ccccc4n3)nc3c(N4CCOCC4)ccnn23)cn1 [Cpd 17, (E)-2-(5-(8-Morpholino-2-(2-(quinolin-2-yl)vinyl)imidazo[1,2-b]pyridazin-3-yl)pyridin-2-ylamino)acetic acid]",8.70,8.52,concentration at 2 h ([2]; brain): 0 ng/g; Kp at 2 h [2]: 0; concentration at 2 h ([2]; plasma): 15.7 ng/mL
"C(=C\c1nc2c(N3CCOCC3)ccnn2c1-c1ccc(Sc2nnc[nH]2)nc1)/c1ccc2ccccc2n1 [Cpd 22, (E)-2-(2-(3-(6-(4H-1,2,4-Triazol-3-ylthio)pyridin-3-yl)-8-morpholinoimidazo[1,2-b]pyridazin-2-yl)vinyl)quinoline]",,,concentration at 2 h ([2]; brain): 117 ng/g; Kp at 2 h [2]: 0.17; concentration at 2 h ([2]; plasma): 788 ng/mL
"O=C(O)C(F)(F)F.O=C(O)CN1CCC(c2c(C#Cc3ccc4ccccc4n3)nc3c(N4CCOCC4)ccnn23)CC1 [Cpd 25, 2-(4-(8-Morpholino-2-(quinolin-2-ylethynyl)imidazo[1,2-b]pyridazin-3-yl)piperidin-1-yl)acetic acid trifluoroacetic acid salt]",,,"Brain conc 2 h [2, 4]: 0 ng/g; Ratio Br/Pl Mean 2 h [2, 4]: 0; Plasma conc 2 h ([2]; male Sprague Dawley rats, 2 h, perfused or non-perfused brain study): 5.77 ng/mL"
"Oc1nc(-c2ccc(-c3c(C#Cc4ccc5ccccc5n4)nc4c(N5CCOCC5)ccnn34)cn2)no1 [Cpd 26, 3-(5-(8-Morpholino-2-(quinolin-2-ylethynyl)imidazo[1,2-b]pyridazin-3-yl)pyridin-2-yl)-1,2,4-oxadiazol-5-ol]",,,concentration at 2 h ([2]; brain): 37.8 ng/g; Kp at 2 h [2]: 0.26; concentration at 2 h ([2]; plasma): 150 ng/mL
"O=C(O)CCC(=O)Nc1ccc(-c2c(CCc3ccc4ccccc4n3)nc3c(N4CCOCC4)ccnn23)cc1 [compound 49, 4-((4-(8-Morpholino-2-(2-(quinolin-2-yl)ethyl)imidazo[1,2-b]pyridazin-3-yl)phenyl)amino)-4-oxobutanoic acid]",8.40,8.40,
"CS(=O)(=O)NC(=O)Nc1ccc(-c2c(/C=C/c3ccc4ccccc4n3)nc3c(N4CCOCC4)ccnn23)cc1 [compound 50, (E)-N-((4-(8-Morpholino-2-(2-(quinolin-2-yl)vinyl)imidazo[1,2-b]pyridazin-3-yl)phenyl)carbamoyl)methanesulfonamide]",8.52,8.10,
"OC(c1ccc(-c2c(CCc3ccc4ccccc4n3)nc3c(N4CCOCC4)ccnn23)cc1)(C(F)(F)F)C(F)(F)F [compound 53, 1,1,1,3,3,3-Hexafluoro-2-(4-(8-morpholino-2-(2-(quinolin-2-yl)ethyl)imidazo[1,2-b]pyridazin-3-yl)phenyl)propan-2-ol]",7.48,7.39,
"O=C(O)c1ccc(-c2c(CCc3ccc4ccccc4n3)nc3c(N4CCOCC4)ccnn23)o1 [compound 60, 5-(8-Morpholino-2-(2-(quinolin-2-yl)ethyl)imidazo[1,2-b]pyridazin-3-yl)furan-2-carboxylic acid]",> 9.00,> 9.00,
"O=C(O)c1ccc(-c2c(CCc3ccc4ccccc4n3)nc3c(N4CCOCC4)ccnn23)s1 [compound 61, 5-(8-Morpholino-2-(2-(quinolin-2-yl)ethyl)imidazo[1,2-b]pyridazin-3-yl)thiophene-2-carboxylic acid]",> 9.00,> 9.00,
"O=C(O)c1ccc(-c2c(/C=C/c3ccc4ccccc4n3)nc3c(N4CCOCC4)ccnn23)cc1O [compound 63, (E)-2-Hydroxy-4-(8-morpholino-2-(2-(quinolin-2-yl)vinyl)imidazo[1,2-b]pyridazin-3-yl)benzoic acid]",8.52,8.52,
"O=C(O)c1ccc(-c2c(CCc3ccc4ccccc4n3)nc3c(N4CCOCC4)ccnn23)cc1O [compound 64, 2-Hydroxy-4-(8-morpholino-2-(2-(quinolin-2-yl)ethyl)imidazo[1,2-b]pyridazin-3-yl)benzoic acid]",8.70,9.00,
"COc1cc(-c2c(CCc3ccc4ccccc4n3)nc3c(N4CCOCC4)ccnn23)ccc1C(=O)O [compound 69, 2-Methoxy-4-(8-morpholino-2-(2-(quinolin-2-yl)ethyl)imidazo[1,2-b]pyridazin-3-yl)benzoic acid]",8.40,8.22,
"Oc1c(F)cc(-c2c(/C=C/c3ccc4ccccc4n3)nc3c(N4CCOCC4)ccnn23)cc1F [compound 80, (E)-2,6-Difluoro-4-(8-morpholino-2-(2-(quinolin-2-yl)vinyl)imidazo[1,2-b]pyridazin-3-yl)phenol]",8.70,> 9.00,
"Oc1c(F)cc(-c2c(CCc3ccc4ccccc4n3)nc3c(N4CCOCC4)ccnn23)cc1F [compound 81, 2,6-Difluoro-4-(8-morpholino-2-(2-(quinolin-2-yl)ethyl)imidazo[1,2-b]pyridazin-3-yl)phenol]",8.40,9.00,
"O=C(O)CCNC(=O)c1ccc(-c2c(C#Cc3ccc4ccccc4n3)nc3c(N4CCOCC4)ccnn23)cc1 [compound 82, 3-(4-(8-Morpholino-2-(quinolin-2-ylethynyl)imidazo[1,2-b]pyridazin-3-yl)benzamido)propanoic acid]",8.70,> 9.00,
"COc1cc(-c2c(C#Cc3ccc4ccccc4n3)nc3c(N4CCOCC4)ccnn23)ccc1C(=O)O [compound 91, 2-Methoxy-4-(8-morpholino-2-(quinolin-2-ylethynyl)imidazo[1,2-b]pyridazin-3-yl)benzoic acid]",> 9.00,> 9.00,
"O=C(O)c1ccc(-c2c(/C=C/c3ccc4ccccc4n3)nc3c(N4CCOCC4)ccnn23)cn1 [compound 92, (E)-5-(8-Morpholino-2-(2-(quinolin-2-yl)vinyl)imidazo[1,2-b]pyridazin-3-yl)picolinic acid]",8.30,8.40,
"COc1cc(C(=O)O)ccc1-c1c(/C=C/c2ccc3ccccc3n2)nc2c(N3CCOCC3)ccnn12 [compound 98, (E)-3-Methoxy-4-(8-morpholino-2-(2-(quinolin-2-yl)vinyl)imidazo[1,2-b]pyridazin-3-yl)benzoic acid]",8.52,8.52,
"O=C(O)c1ccc(-c2c(/C=C/c3ccc4ccccc4n3)nc3c(N4CCOCC4)ccnn23)nc1 [compound 113, (E)-6-(8-Morpholino-2-(2-(quinolin-2-yl)vinyl)imidazo[1,2-b]pyridazin-3-yl)nicotinic acid]",8.70,8.70,
"CS(=O)(=O)NC(=O)C1CCN(c2c(/C=C/c3ccc4ccccc4n3)nc3c(N4CCOCC4)ccnn23)CC1 [compound 153, (E)-N-(Methylsulfonyl)-1-(8-morpholino-2-(2-(quinolin-2-yl)vinyl)imidazo[1,2-b]pyridazin-3-yl)piperidine-4-carboxamide]",8.40,8.52,
"C(=C\c1nc2c(N3CCOCC3)ccnn2c1N1CCCCC1)/c1ccc2ccccc2n1 [compound 154, (E)-4-(3-(Piperidin-1-yl)-2-(2-(quinolin-2-yl)vinyl)imidazo[1,2-b]pyridazin-8-yl)morpholine]",7.55,7.14,
"O=C(O)CCC(=O)N1CCN(c2c(/C=C/c3ccc4ccccc4n3)nc3c(N4CCOCC4)ccnn23)CC1 [compound 155, (E)-4-(4-(8-Morpholino-2-(2-(quinolin-2-yl)vinyl)imidazo[1,2-b]pyridazin-3-yl)piperazin-1-yl)-4-oxobutanoic acid]",8.52,8.30,
"O=C(O)c1ccc(-c2c([C@H]3C[C@H](c4ccc5ccccc5n4)C3)nc3c(N4CCOCC4)ccnn23)cc1 [compound 164, 4-(8-Morpholino-2-((1r,3r)-3-(quinolin-2-yl)cyclobutyl)imidazo[1,2-b]pyridazin-3-yl)benzoic acid trifluoroacetic acid salt]",,> 9.00,concentration at 2 h ([2]; brain): 0 ng/g; Kp at 2 h [2]: 0; concentration at 2 h ([2]; plasma): 162 ng/mL
"O=C(O)C1CCN(c2ccc(-c3c([C@H]4C[C@H](c5ccc6ccccc6n5)C4)nc4c(N5CCOCC5)ccnn34)cc2)CC1 [compound 168, 1-(4-(8-Morpholino-2-((1r,3r)-3-(quinolin-2-yl)cyclobutyl)imidazo[1,2-b]pyridazin-3-yl)phenyl)piperidine-4-carboxylic acid]",,8.70,concentration at 2 h ([2]; brain): 30.1 ng/g; Kp at 2 h [2]: 0.02; concentration at 2 h ([2]; plasma): 1200 ng/mL
"C(=C\c1nc2c(N3CCOCC3)ccnn2c1-c1ccc(-c2nnn[nH]2)cc1)/c1ccc2ccccc2n1 [compound 176, (E)-4-(3-(4-(1H-Tetrazol-5-yl)phenyl)-2-(2-(quinolin-2-yl)vinyl)imidazo[1,2-b]pyridazin-8-yl)morpholine]",8.22,8.22,
